The source of these data is patent publication US4230708A (priority 1977, dated 1980).

The test system of data set [1] is VSV, vaccinia and herpes simplex-1 (KOS). It is filed as cell-based, vaccinia and herpes simplex-1 (KOS) viruses. To be noted: for Antiviral activity of congeners: at 100 μg/ml (the highest level tested), PRK cells; for Antiviral activity of enantiomers and racemate: VSV/PRK, vaccinia/PRK, herpes simplex-1 (KOS)/PRK.
The nature of data set [2]: Stability. It is filed as physicochemical.
Data set [3] concerns Sindbis. Kind of data set: microbe, parasite or virus in culture. In kind it is cell-based. To be noted: BHK, read-out: ID50 (the source's name).
For data set [4], the system named is vaccinia virus. In kind it is cell-based. To be noted: for Virus yield: (S)-DHPA 30 μg/ml, ara-A 3 μg/ml, or both.
Data set [5] deals with Coxsackie B-4. It is filed as cell-based, Coxsackie B-4 virus. To be noted: HeLa cells; 100 CCID50; read-out: ID50 (the source's name). As to the method:
The antiviral activity of (S)-DHPA was explored in a variety of cell cultures and with a variety of DNA and RNA viruses such as listed in Table 1. The cells of each cell culture were inoculated with a certain virus in a dose of about 100 CCID50, that is about 100 times the dose needed to infect 50% of the cells. One hour after inoculation, (S)-DHPA was added in varying doses from zero to 40 μg/ml and sometimes to more than 200 μg/ml. For each virus-cell system, the ID50 of (S)-DHPA, that is the dose of (S)-DHPA needed to suppress the cytopathic effect of the virus by 50%, was determined. This cytopathic effect (CPE) was measured in the untreated virus-infected cell cultures [(S)-DHPA dose 0] and recorded as soon as it reached completion (according to the method described by L. J. Rosenthal and I. L. Shechmaister, in "Tissue Culture", page 510, Academic Press, New York, 1973).

The subject of data set [6] is Vesicular stomatitis. Kind of data set: microbe, parasite or virus in culture. It is filed as cell-based. To be noted: read-out: ID50.
The test system of data set [7] is Measles. Kind of data set: microbe, parasite or virus in culture. It is filed as cell-based. To be noted: Measles morbillivirus, Vero; read-out: ID50 (the source's name).
In data set [8] the test system is Vaccinia. Put plainly: microbe, parasite or virus in culture. To be noted: Orthopoxvirus vaccinia, read-out: ID50. It is filed as cell-based.
Data set [9] has as its system vesicular stomatitis virus. It is filed as in vivo, NMRI mice. To be noted: for Final number of surviving mice: control 37.5%.
The subject of data set [10] is vesicular stomatitis virus. Put plainly: microbe, parasite or virus in culture. It is filed as cell-based. To be noted: HSF, read-out: Decrease of virus titer compared with control.
Data set [11] deals with adenosine deaminase (Bos taurus, UniProt P56658). Put plainly: Deamination of ara-A by adenosine deaminase of calf intestinal mucosa (FIG. 3, FIG. 4). It is filed as biochemical. To be noted: for Decrease in absorbance at 265 nm (extent of deamination): FIG. 3A. The procedure: FIG. 3 is a graphical representation showing the inhibitory effect of (S)-DHPA on deamination of ara-A by adenosine deaminase of calf intestinal mucosa. Deamination of ara-A was measured according to the method of Kalckar (compare J. Biol. Chem., 167, 461, […]), modified by Trams and Lauter (compare Biochem. J., 152, 681, 1975). The extent of deamination is equivalent to the decrease of absorbance at λ (wavelength)=265 nm. The decrease in absorbance at 265 nm was 0.11 if 50 nmol of ara-A were used, and was 0.16 if 100 nmol of ara-A were used (FIG. 3A).

Data set [12] can be described thus: Acute toxicity in mice. It is filed as in vivo.
In data set [13] the test system is Polio-1. Kind of data set: microbe, parasite or virus in culture. It is filed as cell-based, polio virus type 1. To be noted: read-out: ID50.
Data set [14] relates to DNA viruses; RNA viruses. To be noted: known from literature; cited from earlier work.
The conditions of data set [15]: cited from earlier work.
Where [16] appears, read: 1 day after infection, control 3.6.
Setting [17] is: 2 days after infection, control 5.0.
The mark [18] stands for this setting: 3 days after infection, control 5.3.
The mark [19] stands for this setting: repeated doses of 0.4 mg/mouse (about 27 mg/kg).

In brackets after ≈: the same amount, converted by molar mass. Like-named read-outs stand apart in the source and are kept apart here.

Chain of adenosine deaminase (P56658 whole entry): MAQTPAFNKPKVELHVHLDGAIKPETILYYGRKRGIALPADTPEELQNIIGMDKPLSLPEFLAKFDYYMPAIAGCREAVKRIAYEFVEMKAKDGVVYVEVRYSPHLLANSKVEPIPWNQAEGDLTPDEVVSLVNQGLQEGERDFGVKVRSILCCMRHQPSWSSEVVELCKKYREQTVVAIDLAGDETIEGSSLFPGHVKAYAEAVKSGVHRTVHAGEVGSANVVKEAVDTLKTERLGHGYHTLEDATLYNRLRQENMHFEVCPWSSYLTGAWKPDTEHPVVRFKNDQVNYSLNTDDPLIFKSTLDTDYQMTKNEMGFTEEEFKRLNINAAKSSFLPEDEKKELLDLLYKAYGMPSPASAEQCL

As for `Nc1ncnc2c1ncn2CC(N)C(=O)O` (racemic) [9-(β-DL-alanyl)-adenine], the “Antiviral activity of congeners” value in data set [1] was “did not demonstrate an antiviral activity”.

In the case of `Nc1ncnc2c1ncn2CC(O)CO` (racemic) [(RS)-DHPA, (RS)-9-(2,3-dihydroxypropyl)adenine], in [2], the “Stability in pure form” value is listed as “practically unlimited” and the “Stability (thermic sterilization of neutral, weakly acid or weakly alkaline solutions possible)” value is given as “remarkable stability”. The “Antiviral activity of enantiomers and racemate” value in data set [1] was “almost as effective as the (S)-enantiomer”. For the same compound, the “Antiviral activity of enantiomers and racemate” value in data set [1] (listed as RS-form) is given as “almost as effective as the S-form”.

With `O=c1ccn(CCC(O)CCO)c(=O)[nH]1` (racemic) [RS-1-(3,5-dihydroxypentyl)uracil], the “Antiviral activity of congeners” value in data set [1] is listed as “did not demonstrate an antiviral activity”.

Regarding `CC(O)Cn1cnc2c(N)ncnc21` (racemic) [RS-9-(2-hydroxypropyl)adenine], the “Antiviral activity of congeners” value in data set [1] is “did not demonstrate an antiviral activity”.

On to `Nc1ncnc2c1ncn2CCC(O)CO` (racemic) [RS-9-(3,4-dihydroxybutyl)-adenine], for which the “Antiviral activity of congeners” value in data set [1] was “did not demonstrate an antiviral activity”.

Regarding `Nc1ncnc2c1ncn2CCC(O)CCO` (racemic) [RS-9-(3,5-dihydroxypentyl)adenine], in [1], the “Antiviral activity of congeners” value is “did not demonstrate an antiviral activity”.

With `Nc1ncnc2c1ncn2C[C@H](O)[C@@H](O)CO` (relative stereo) [RS-threo-9-(2,3,4-trihydroxybutyl)adenine], in data set [1], the “Antiviral activity of congeners” value is “did not demonstrate an antiviral activity”.

In the case of `Nc1ncnc2c1ncn2C(CO)CO` [2-(9-adeninyl)propane-1,3-diol], the “Antiviral activity of congeners” value in data set [1] is recorded as “did not demonstrate an antiviral activity”.

With `NCCn1cnc2c(N)ncnc21` [9-(2-aminoethyl)adenine], in data set [1], the “Antiviral activity of congeners” value is recorded as “did not demonstrate an antiviral activity”.

In the case of `Nc1ncnc2c1ncn2CCO` [9-(2-hydroxyethyl)adenine], the “Antiviral activity of congeners” value in data set [1] is “did not demonstrate an antiviral activity”.

As for `Nc1ncnc2c1ncn2CCCO` [9-(3-hydroxypropyl)adenine], in [1], the “Antiviral activity of congeners” value was “did not demonstrate an antiviral activity”.

As for `Nc1ncnc2c1ncn2C[C@@H](O)CO` [(R)-DHPA], the “Antiviral activity of enantiomers and racemate” value in data set [1] (listed as R-enantiomeric form) is listed as “not”.

Consider `Nc1ncnc2c1ncn2C[C@H](O)CO` [(S)-DHPA, (S)-9-(2,3-dihydroxypropyl)adenine], for which the EC50 is greater than 200 µg/mL in data set [3]; greater than 200 µg/mL in [5]; 2 to 7 µg/mL (≈ 9.56 to 33.5 µM) in [6] (HSF); greater than 200 µg/mL in data set [6] (HeLa); 7 to 10 µg/mL (≈ 33.5 to 47.8 µM) in [6] (PRK); 4 to 40 µg/mL (≈ 19.1 to 191 µM) in data set [7]. For the same compound, the EC50 in data set [8] (Skin fibroblast) was 10 to 20 µg/mL (≈ 47.8 to 95.6 µM); in data set [8] (in Oryctolagus cuniculus), 10 to 20 µg/mL (≈ 47.8 to 95.6 µM); in data set [13] (HSF), greater than 200 µg/mL; in data set [13] (HeLa), greater than 200 µg/mL. For the same compound, the results for the Virus yield in data set [4] (setting [16]), in [4] (setting [17]) and in data set [4] (setting [18]) were 3.6 log10 PFU/ml, 4.9 log10 PFU/ml and 5.4 log10 PFU/ml, respectively. For the same compound, the “Potentiation of antiviral activity of ara-A” value in [4] (PRK cells, vaccinia virus) is recorded as “markedly potentiated the antiviral activity of ara-A”. In addition, the “Final number of surviving mice” value turned out to be 67% in [9] (2 mg/mouse (about 133 mg/kg) i.p. at 1 h and 1, 2, 3, 4 days); 55% in data set [9] (setting [19]). Also, the “Increase in final number of surviving mice vs control” value in [9] (2 mg/mouse i.p., repeated) is listed as “significant increase”. In addition, in data set [9] (2 mg/mouse i.p., repeated, 9 days after infection), the “Difference in number of survivors at 9 days vs control” value was “significant”. For the same compound, the values for the Protection entry in [9] (repeated doses of 0.08 mg/mouse (about 5.4 mg/kg)) and in data set [9] (setting [19]) were “did not confer protection” and “slight protection”, respectively. Moreover, the log reduction at 100 µg/mL in data set [10] (24 h) and in [10] (48 h) was roughly 4 each time. In addition, the “Stability in pure form” value in data set [2] is on record as “practically unlimited”. The “Stability (thermic sterilization of neutral, weakly acid or weakly alkaline solutions possible)” value in data set [2] is reported as “remarkable stability”. In data set [1], the “Antiviral activity of enantiomers and racemate” value is listed as “active”. Moreover, the “Concentration dependence of inhibition of ara-A deamination” value in data set [11] (absorbance decrease at 265 nm) is “inhibited proportionally to the concentration of (S)-DHPA”. Moreover, the “Inhibition of deamination of ara-A” value in data set [11] (adenosine deaminase extracted from calf intestinal mucosa) was “strongly inhibited”. The “Survival in acute toxicity test (LD50 could not be determined)” value in data set [12] (doses up to 1000 mg/kg/day for 3 to 5 days) was “all mice survived (without any sign of illness)”. Moreover, the Acute toxicity entry in data set [12] (general statement) was “very low acute toxicity”.

As to `Cc1cn(C[C@@H](O)CO)c(=O)[nH]c1=O` [R-1-(2,3-dihydroxypropyl)-thymine], in [1], the “Antiviral activity of congeners” value is on record as “did not demonstrate an antiviral activity”.

Consider `Cc1cn(C[C@H](O)CO)c(=O)[nH]c1=O` [S-1-(2,3-dihydroxypropyl)thymine], for which, in data set [1], the “Antiviral activity of congeners” value was “did not demonstrate an antiviral activity”.

Take `O=c1ccn(C[C@H](O)CO)c(=O)[nH]1` [S-1-(2,3-dihydroxypropyl)uracil]: the “Antiviral activity of congeners” value in [1] was “did not demonstrate an antiviral activity”.

Regarding `O=c1ccn(CC[C@H](O)CO)c(=O)[nH]1` [S-1-(3,4-dihydroxybutyl)-racil], the “Antiviral activity of congeners” value in [1] is listed as “did not demonstrate an antiviral activity”.

`Cc1c[nH]c(=O)n(C[C@H](O)CO)c1=O` [S-3-(2,3-dihydroxypropyl)thymine]: the “Antiviral activity of congeners” value in [1] is given as “did not demonstrate an antiviral activity”.

For `O=c1[nH]cnc2c1ncn2C[C@H](O)CO` [S-9-(2,3-dihydroxypropyl)hypoxanthine], the “Antiviral activity of congeners” value in [1] is listed as “did not demonstrate an antiviral activity”.

With `Nc1ncnc2c1ncn2CC[C@H](O)CO` [S-9-(3,4-dihydroxybutyl)adenine], in data set [1], the “Antiviral activity of congeners” value is on record as “did not demonstrate an antiviral activity”.

With `Nc1ncnc2c1ncn2[C@@H]1O[C@H](CO)[C@@H](O)[C@@H]1O` [ara-A, 9-(beta-D-arabinofuranosyl)-adenine, reference compound], the Virus yield came to 2.1 log10 PFU/ml in [4] (setting [16]), 4.0 log10 PFU/ml in data set [4] (setting [17]) and 5.0 log10 PFU/ml in data set [4] (setting [18]). Also, the Antiviral activity result in data set [14] is on record as “marked antiviral activity but only for some DNA viruses”. Further, the “Decrease in absorbance at 265 nm (extent of deamination)” value in [11] (50 nmol of ara-A) was 0.11; in data set [11] (100 nmol of ara-A) it was 0.16.

In the case of `NC(=O)c1ncn([C@@H]2O[C@H](CO)[C@@H](O)[C@H]2O)n1` [ribavirin, (1-beta-D-ribofuranosyl)-1,2,4-triazole-3-carboxamide], in data set [15] (known from literature), the Safety margin result was “rather narrow safety margin”. Further, in data set [15] (known), the Toxicity entry is “high toxicity”. Also, in [14], the Antiviral activity result is listed as “broad-spectrum antiviral activity”.
